According to PubChem BioAssay AID274 (DTP/NCI, 2004):
“And” between values parts separate entries of the source, which are not always exact repeats. Identical values can stand only once. Inconclusive results and toxic doses are left out. How the source made its calls: active means survival T/C of 150% or more; inactive means T/C below 125% in these data. Peptide text beside a SMILES is read from it. * marks the point of attachment. Trt = c1ccc(C(c2ccccc2)(c2ccccc2)*)cc1; Cbz = O=C(OCc1ccccc1)*

Tested on: BDF1 mice, Lewis lung carcinoma iv, survival T/C
Assay: NCI In Vivo Anticancer Drug Screen. Data for tumor model Lewis Lung Carcinoma (intravenous) in B6D2F1 (BDF1) mice
Conditions: endpoint: median survival time, higher = longer survival
Protocol: The antitumor activity of compounds was measured in mice bearing transplantable tumors. Survival or tumor size were measured and the results are expressed as the measurement made in the treated group (T) divided by the measurement made in the vehicle treated control group (C). The tumor model used in this assay is Lewis Lung Carcinoma (intravenous) in B6D2F1 (BDF1) mice

[1] = dose: 12.5 mg/kg/injection, schedule: Q01DX009 (ip), vehicle: saline with Tween-80
[2] = dose: 25.0 mg/kg/injection, schedule: Q01DX009 (ip), vehicle: saline with Tween-80
[3] = dose: 50.0 mg/kg/injection, schedule: Q01DX009 (ip), vehicle: saline with Tween-80
[4] = dose: 100.0 mg/kg/injection, schedule: Q01DX009 (ip), vehicle: saline with Tween-80
[5] = dose: 200.0 mg/kg/injection, schedule: Q01DX009 (ip), vehicle: saline with Tween-80
[6] = dose: 400.0 mg/kg/injection, schedule: Q01DX009 (ip), vehicle: saline with Tween-80
[7] = dose: 100.0 mg/kg/injection, schedule: Q01DX009 (ip), vehicle: saline
[8] = dose: 200.0 mg/kg/injection, schedule: Q01DX009 (ip), vehicle: saline
[9] = dose: 400.0 mg/kg/injection, schedule: Q01DX009 (ip), vehicle: saline
[10] = dose: 25.0 mg/kg/injection, schedule: Q01DX009 (ip), vehicle: saline
[11] = dose: 50.0 mg/kg/injection, schedule: Q01DX009 (ip), vehicle: saline
[12] = dose: 12.5 mg/kg/injection, schedule: Q01DX009 (ip), vehicle: saline

Measured: T/C

O=C(N/N=C\c1cc(Br)cc(Br)c1O)N/N=C/c1cc(Br)cc(Br)c1O
inactive: [1] 91 % of control | [2] 96 % of control | [3] 98 % of control | [4] 96 % of control | [5] 98 % of control | [6] 96 % of control

CN(C)CC(=O)c1ccc(O)c(O)c1
inactive: [7] 99 % of control | [8] 91 % of control | [9] 90 % of control

CS(=O)(=O)OCCCNCCCOS(C)(=O)=O
inactive: dose: 5.0 mg/kg/injection, schedule: Q01DX009 (ip), vehicle: saline 96 % of control | dose: 10.0 mg/kg/injection, schedule: Q01DX009 (ip), vehicle: saline 106 % of control and 114 % of control | dose: 20.0 mg/kg/injection, schedule: Q01DX009 (ip), vehicle: saline 108 % of control | dose: 40.0 mg/kg/injection, schedule: Q01DX009 (ip), vehicle: saline 113 % of control

O=C1C=CC(=O)N1c1ccc(Cl)cc1
inactive: dose: 1.25 mg/kg/injection, schedule: Q01DX009 (ip), vehicle: Klucel (hydroxypropylcellulose) (HPC) 100 % of control | dose: 2.5 mg/kg/injection, schedule: Q01DX009 (ip), vehicle: Klucel (hydroxypropylcellulose) (HPC) 95 % of control | dose: 5.0 mg/kg/injection, schedule: Q01DX009 (ip), vehicle: Klucel (hydroxypropylcellulose) (HPC) 96 % of control | dose: 10.0 mg/kg/injection, schedule: Q01DX009 (ip), vehicle: Klucel (hydroxypropylcellulose) (HPC) 107 % of control

C[C@@H]1CN(C(=O)CCOS(C)(=O)=O)[C@@H](C)CN1C(=O)CCOS(C)(=O)=O
inactive: [3] 93 % of control | [4] 101 % of control

COc1cc(Cl)ccc1C
inactive: [1] 111 % of control | [2] 107 % of control | [3] 97 % of control | [4] 108 % of control | [5] 102 % of control | [6] 98 % of control

CC(C)(C)N1CC1CNC(=O)C(=O)NCC1CN1C(C)(C)C (stereo unspecified)
inactive: dose: 0.78 mg/kg/injection, schedule: Q01DX009 (ip), vehicle: saline with Tween-80 111 % of control | dose: 1.56 mg/kg/injection, schedule: Q01DX009 (ip), vehicle: saline with Tween-80 105 % of control | dose: 3.12 mg/kg/injection, schedule: Q01DX009 (ip), vehicle: saline with Tween-80 98 % of control | dose: 6.25 mg/kg/injection, schedule: Q01DX009 (ip), vehicle: saline with Tween-80 105 % of control | [1] 117 % of control

O=c1ccn(C2OC(CO)C(O)C2O)c(=O)[nH]1 (stereo unspecified)
inactive: dose: 32.0 mg/kg/injection, schedule: Q01DX009 (ip), vehicle: Klucel (hydroxypropylcellulose) (HPC) 109 % of control | dose: 64.0 mg/kg/injection, schedule: Q01DX009 (ip), vehicle: Klucel (hydroxypropylcellulose) (HPC) 96 % of control | dose: 128.0 mg/kg/injection, schedule: Q01DX009 (ip), vehicle: Klucel (hydroxypropylcellulose) (HPC) 96 % of control | dose: 256.0 mg/kg/injection, schedule: Q01DX009 (ip), vehicle: Klucel (hydroxypropylcellulose) (HPC) 110 % of control | dose: 512.0 mg/kg/injection, schedule: Q01DX009 (ip), vehicle: Klucel (hydroxypropylcellulose) (HPC) 106 % of control

C=CCNc1ccc(C)cc1
inactive: dose: 100.0 mg/kg/injection, schedule: Q01DX009 (ip), vehicle: Klucel (hydroxypropylcellulose) (HPC) 86 % of control

CCC1(O)CC2CN(CCc3c([nH]c4ccccc34)C(C(=O)OC)(c3cc4c(cc3OC)N(C)C3C(O)(C(N)=O)C(O)C5(CC)C=CCN6CCC43C65)C2)C1 (stereo unspecified) (tested in a mixture with another compound)
inactive: dose: 0.6 mg/kg/injection, schedule: Q04DX003 (ip), vehicle: saline 106 % of control | dose: 1.0 mg/kg/injection, schedule: Q04DX003 (ip), vehicle: saline 111 % of control | dose: 1.67 mg/kg/injection, schedule: Q04DX003 (ip), vehicle: saline 97 % of control | dose: 216.0 micrograms/kg/injection, schedule: Q01DX009 (ip), vehicle: saline 93 % of control | dose: 360.0 micrograms/kg/injection, schedule: Q01DX009 (ip), vehicle: saline 97 % of control

CCC(C(=O)O)C(=O)O.[NH-]CC1CCCC[N-]1.[Pt+2]
inactive: [10] 98 % of control and 100 % of control | [11] 100 % of control

COC(=O)C(CSC(c1ccccc1)(c1ccccc1)c1ccccc1)NC(=O)C(CC(N)=O)NC(=O)OCc1ccccc1 (stereo not drawn) (Cbz-Asn-Cys(Trt)-OMe; configuration not given here)
inactive: dose: 12.5 mg/kg/injection, schedule: Q01DX009 (ip), vehicle: distilled water + Tween-80 103 % of control | dose: 25.0 mg/kg/injection, schedule: Q01DX009 (ip), vehicle: distilled water + Tween-80 101 % of control | dose: 50.0 mg/kg/injection, schedule: Q01DX009 (ip), vehicle: distilled water + Tween-80 89 % of control | dose: 100.0 mg/kg/injection, schedule: Q01DX009 (ip), vehicle: distilled water + Tween-80 100 % of control | dose: 200.0 mg/kg/injection, schedule: Q01DX009 (ip), vehicle: distilled water + Tween-80 105 % of control | dose: 400.0 mg/kg/injection, schedule: Q01DX009 (ip), vehicle: distilled water + Tween-80 98 % of control

N=C(N)c1ccc(/C=C/c2ccc(C(=N)N)cc2O)cc1
inactive: dose: 3.12 mg/kg/injection, schedule: Q01DX009 (ip), vehicle: water 96 % of control | dose: 6.25 mg/kg/injection, schedule: Q01DX009 (ip), vehicle: water 101 % of control | dose: 12.5 mg/kg/injection, schedule: Q01DX009 (ip), vehicle: water 101 % of control | dose: 25.0 mg/kg/injection, schedule: Q01DX009 (ip), vehicle: water 111 % of control | dose: 50.0 mg/kg/injection, schedule: Q01DX009 (ip), vehicle: water 115 % of control

OCC1(CO)COC2(CCCCC2)N1
inactive: [12] 102 % of control | [10] 100 % of control | [11] 102 % of control | [7] 100 % of control | [8] 101 % of control | [9] 103 % of control

OCCCN1CCCCC1CO (stereo unspecified)
inactive: [12] 100 % of control and 107 % of control | [10] 98 % of control and 110 % of control | [11] 97 % of control and 90 % of control | [7] 91 % of control and 106 % of control | [8] 100 % of control and 107 % of control | [9] 95 % of control and 110 % of control
